{
  "source": "patent US12440475B2",
  "about": "“Hodgkin lymphoma therapy” (priority 2016, dated 2025)",
  "key": {"[1]": {"system": "L1236-R100, L1236/DMSO and L1236", "experiment": "Viable cell count and IC50, three L1236 cell lines", "format": "cell-based", "conditions": "Homo sapiens, L-1236; all cell lines tested, including R100", "procedure": "(§1) • (a) Five Hodgkin lymphoma cell lines (KMH2, HDML2, L540, L1236 and L426) were cultured separately in the presence of bendamustine, vorinostat and EDO-S101 dissolved in DMSO at 37° C. L1236-derived Hodgkin lymphoma cell lines were selected as they have an acquired stable resistance to bendamustine (R100) or an ability to display continuous growth upon extended exposure to sub-lethal concentrations of bendamustine (R25, R50 and R75). A detailed description of the L1236-R Hodgkin lymphoma cell lines is disclosed in De Filippi et al, ASH 2015, Abstract. #2479. In these tests, the L1236-100R bendamustine resistant strain was used. […] Control cells were cultured in the same final concentration of DMSO. The number of viable cells was assessed at 24, 48 and 72 hours through a Countess™ automated cell counter (Invitrogen), each experiment being repeated three times and the results given being the mean of the three results±SD."}, "[2]": {"system": "Hodgkin lymphoma cell lines (KMH2, HDML2, L540, L1236 and L426)", "experiment": "IC50 comparison of bendamustine, vorinostat and EDO-S101, five cell lines", "format": "cell-based, human", "procedure": "as §1"}, "KMH2": {"system": "KMH2", "experiment": "Mitotic index and chromosomal aberrations, KMH2", "format": "cell-based, human", "procedure": "(§2) The mitotic index and chromosomal aberrations for each of the cell lines were evaluated after treatment with either 20 μmol or 10 μmol EDO-S101 in DMSO. Each cell line was cultured at 37° C. in the presence of RPMI 1640 supplemented with 10% FCS and antibiotics. Colcemid (0.1 ug/ml) was added 2 h before harvesting and slides with chromosomes in metaphase were prepared following the standard methanol/acetic acid (3/1, v/v) procedure. The slides were stored at −20° C. until use.\n(§3) FISH was performed using a combination of standard procedures from the recommended protocols for chromosome analysis, following telomere and centromere staining, using PNA probes. In all, 100 metaphases were scored per in vitro dose exposure.\n(§4) The mitotic index was determined by measurement of the sum of all cells in prophase, metaphase, anaphase and telophase divided by the total number of cells."}, "L428 cells": {"system": "L428 cells", "experiment": "Cytogenetic analysis of cells from xenografted mice", "format": "in vivo, NSG mice", "conditions": "different doses, including a single dose of 60 mg/kg", "procedure": "Separated cells were cultured in the presence of RPMI 1640 supplemented with 10% Fetal Calf Serum (FCS) and antibiotics, colcemid (0.1 μg/ml) added 2 h before harvesting, and the slides with metaphase chromosomes prepared following the standard methanol/acetic acid (3/1, v/v) procedure.\nFour new cell lines were generated after one month of in vitro culture following 24 hour of exposure to EDO-S101. Fluorescence in situ hybridysation (FISH) was performed using a combination of standard procedures from the recommended protocols for chromosomal analysis, following telomere and centromere staining, using peptide nucleic acid (PNA) probes in order to detect unstable chromosomal aberrations and to delimit the chromosome territory. M-FISH was performed using multi-FISH probes (Metasystems GmbH, Altlussheim, Germany), according to the manufacturer's recommendations on the same slide. Images of hybridized metaphases were captured using a charge coupled device camera (Zeiss, Thornwood, NY) coupled to a Zeiss Axioplan microscope and processed using ISIS software (Metasystems).\nThe ocular tumour masses were harvested, as well as cells which infiltrated the liver. Five new cell lines were established from ocular tumours and the livers of both control mice (PBS or vehicle). […]"}, "L540 [3]": {"system": "L540", "experiment": "Apoptosis by annexin V-FITC and Hoechst double staining, L540", "format": "cell-based, human", "conditions": "5 μM, 24 h and 48 h", "procedure": "(§5) This assay was performed on 7 cell lines (HDLM2 was excluded due to the low number of available cells) at 24 h and 48 h following EDO-S101 treatment (5 μM, DMSO). Control cells were cultured in the same final concentration of DMSO. Only viable cells (using Hoechst staining) were focused on, and all necrotic cells were excluded. Apoptosis was determined using annexin V-FITC and Hoechst (33342) double staining according to the manufacturer's instructions (BD Biosciences). Cell-cycle fractions were determined by Hoechst nuclear staining. Briefly, cells were harvested, washed in PBS, incubated with annexin V-FITC and Hoechst solution for 30 minutes at room temperature. Data were collected using a FACSCalibur flow cytometer (BD Biosciences) and analyzed with FlowJo Version 7.5.5 obtainable from FlowJo, LLC. Results represent the mean value of 3 independent experiments."}, "[4]": {"system": "Hodgkin lymphoma cell lines", "experiment": "Apoptosis by annexin V-FITC and Hoechst double staining, 7 cell lines", "format": "cell-based, human", "conditions": "5 μM; 24 h and 48 h; all cells", "procedure": "as §5"}, "L1236-R100": {"system": "L1236-R100", "experiment": "Viable cell count and IC50, bendamustine-resistant cell line", "format": "cell-based, human", "procedure": "as §1"}, "L540 [5]": {"system": "L540", "experiment": "Mitotic index, L540", "format": "cell-based, human", "procedure": "as §2, §3, §4"}, "[6]": {"experiment": "Histopathology of non-tumour findings (lung, spleen) in xenografted NSG mice", "format": "in vivo", "parameters": "key: 0: within physiological limits; 1: minimal; 2: mild; 3: moderate; 4: marked; 5: severe", "procedure": "Organs were fixed in 4% PFA, trimmed and post-fixed in 70° ethanol. They were then briefly processed using a vacuum inclusion processor and paraffin blocks were prepared. Five micrometer-thick sections were cut from these blocks and the resulting sections were stained with hemotoxylin-eosine (H&E) for histopathological analysis. In addition, IHC was carried out on of the totality of liver and spleen specimens for confirmation of the spread of engrafted cells. The search for single cells or small groups of grafted Hodgkin lymphoma cells was performed using an anti-CD30 antibody (DAKO, France; 1:40, EDTA pH9 pre-treatment) and the Ventana Discovery XT IHC system. Apoptosis and tumour necrosis were analysed.\nMicroscopic findings were assigned a severity score based upon the following scale: “0”=within physiological limits, “1”=minimal, “2”=mild, “3”=moderate, “4”=marked, “5”=severe. This severity score was attributed according to the size and number of observed lesions."}},
  "data": [
    {"compound": "Cn1c(CCCCCCC(=O)NO)nc2cc(N(CCCl)CCCl)ccc21", "note": "[EDO-S101]", "values": [
      {"measurement": "IC50", "setting": "[1]", "result": "1000 to 3000", "unit": "nM"},
      {"measurement": "IC50", "setting": "[2]; Homo sapiens, range over all cell lines tested, including L1236-R", "result": "1000 to 2000", "unit": "nM"},
      {"measurement": "IC50s relative to bendamustine", "setting": "[2]; tumour cells of Hodgkin lymphoma", "result": "about ten-fold lower than those of bendamustine"},
      {"measurement": "mitotic index", "setting": "KMH2", "result": "very low mitotic index"},
      {"measurement": "chromosomal aberrations in metaphase", "setting": "KMH2; telomere and centromere staining", "result": "numerous chromosomal aberrations"},
      {"measurement": "metaphases and cell lines from cells of treated mice", "setting": "L428 cells", "result": "not possible to obtain either metaphases from direct culture or establish cell lines"},
      {"measurement": "sensitivity for apoptosis", "setting": "L540 [3]", "result": "higher sensitivity"},
      {"measurement": "sensitivity for apoptosis", "setting": "[4]", "result": "high sensitivity"},
      {"measurement": "viable cells", "setting": "L1236-R100; R100, 48 hours after treatment with 50 μM", "result": "no viable cells"},
      {"measurement": "anti-proliferative activity compared with vorinostat", "setting": "L1236-R100; bendamustine-resistant cell line R100", "result": "greater than that of vorinostat"},
      {"measurement": "mitotic index", "setting": "L540 [5]", "result": "very low mitotic index"},
      {"measurement": "Lung, alveolar histiocytosis (score per animal)", "setting": "[6]; 1*60 mg/kg", "result": 1},
      {"measurement": "Lung, alveolar histiocytosis (score per animal)", "setting": "[6]; 1*80 mg/kg", "result": 1},
      {"measurement": "Spleen, red pulp activation, diffuse (score per animal)", "setting": "[6]; 2*60 mg/kg", "result": 3}
    ]}
  ]
}
